Data reported in the supplement of paper PMC8149375.

Columns and labels:
Details in all cases: treatment: drug alone; 5 days
769-P [1] = test: GI50, drug alone; higher = less potent
Protocol: (§1)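 Primary HTS: 8 RCC cell lines treated with 8 doses (up to 10 uM) of each library drug alone for 5 days; viability read by CellTiter-Glo and normalised to DMSO. GI50 was fitted with XLfit (4-parameter), AUC is the area under the dose-response curve, and minimum viability is the lowest fraction of DMSO viability across doses.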

786-O [2] = test: GI50, drug alone; higher = less potent
Protocol: as §1

A498 [3] = test: GI50, drug alone; higher = less potent
Protocol: as §1

ACHN [4] = test: GI50, drug alone; higher = less potent
Protocol: as §1

CAKI-1 [5] = test: GI50, drug alone; higher = less potent
Protocol: as §1

SN12C [6] = test: GI50, drug alone; higher = less potent
Protocol: as §1

TK-10 [7] = test: GI50, drug alone; higher = less potent
Protocol: as §1

UO-31 [8] = test: GI50, drug alone; higher = less potent
Protocol: as §1

769-P [9] = test: minimum viability across doses, drug alone, relative to DMSO (fraction); higher = less growth inhibition
Protocol: as §1

786-O [10] = test: as above
Protocol: as §1

A498 [11] = test: as above
Protocol: as §1

ACHN [12] = test: as above
Protocol: as §1

CAKI-1 [13] = test: as above
Protocol: as §1

SN12C [14] = test: as above
Protocol: as §1

TK-10 [15] = test: as above
Protocol: as §1

UO-31 [16] = test: as above
Protocol: as §1

769-P [17] = test: AUC of dose-response viability curve, drug alone (arbitrary (AUC of normalised viability)); higher = less growth inhibition
Protocol: as §1

786-O [18] = test: as above
Protocol: as §1

A498 [19] = test: as above
Protocol: as §1

ACHN [20] = test: as above
Protocol: as §1

CAKI-1 [21] = test: as above
Protocol: as §1

SN12C [22] = test: as above
Protocol: as §1

TK-10 [23] = test: as above
Protocol: as §1

UO-31 [24] = test: as above
Protocol: as §1

| Compound | GI50, drug alone (769-P [1]) [nM] | GI50, drug alone (786-O [2]) [nM] | GI50, drug alone (A498 [3]) [nM] | GI50, drug alone (ACHN [4]) [nM] | GI50, drug alone (CAKI-1 [5]) [nM] | GI50, drug alone (SN12C [6]) [nM] | GI50, drug alone (TK-10 [7]) [nM] | GI50, drug alone (UO-31 [8]) [nM] | minimum viability across doses (769-P [9]) | minimum viability across doses (786-O [10]) | minimum viability across doses (A498 [11]) | minimum viability across doses (ACHN [12]) | minimum viability across doses (CAKI-1 [13]) | minimum viability across doses (SN12C [14]) | minimum viability across doses (TK-10 [15]) | minimum viability across doses (UO-31 [16]) | AUC of dose-response viability curve (769-P [17]) | AUC of dose-response viability curve (786-O [18]) | AUC of dose-response viability curve (A498 [19]) | AUC of dose-response viability curve (ACHN [20]) | AUC of dose-response viability curve (CAKI-1 [21]) | AUC of dose-response viability curve (SN12C [22]) | AUC of dose-response viability curve (TK-10 [23]) | AUC of dose-response viability curve (UO-31 [24]) |
| --- | --- | --- | --- | --- | --- | --- | --- | --- | --- | --- | --- | --- | --- | --- | --- | --- | --- | --- | --- | --- | --- | --- | --- | --- |
| CN[C@@H]1C[C@H]2O[C@@](C)([C@@H]1OC)n1c3ccccc3c3c4c(c5c6ccccc6n2c5c31)C(=O)NC4 [Staurosporine] | < 3 | < 3 | 90.9 | 5.33 | < 3 | 33.3 | < 3 | < 3 | 0.00587 | 0.00288 | 0.0127 | 0.00377 | 0.00272 | 0.00485 | 0.0227 | 0.0116 | 0.299 | 0.171 | 1.56 | 0.526 | 0.143 | 1.06 | 0.286 | 0.1 |
| Cn1c(=O)n(-c2ccc(C(C)(C)C#N)cc2)c2c3cc(-c4cnc5ccccc5c4)ccc3ncc21 [BEZ235 (NVP-BEZ235)] | 301 | 150 | 303 | 223 | 294 | 297 | 489 | 152 | 0.165 | 0.139 | 0.0718 | 0.0714 | 0.0875 | 0.189 | 0.157 | 0.00561 | 2.02 | 1.74 | 2.03 | 1.86 | 1.99 | 1.96 | 2.11 | 1.69 |
| CCCS(=O)(=O)Nc1ccc(F)c(C(=O)c2c[nH]c3ncc(Cl)cc23)c1F [PLX-4720] | > 10000 | 4860 | > 10000 | 2460 | 7550 | > 10000 | > 10000 | > 10000 | 0.817 | 0.335 | 0.885 | 0.197 | 0.278 | 0.875 | 0.574 | 0.944 | 3.18 | 2.5 | 4.12 | 2.57 | 3.33 | 3.44 | 3.13 | 4.19 |
| CC(=O)c1c(C)c2cnc(Nc3ccc(N4CCNCC4)cn3)nc2n(C2CCCC2)c1=O.Cl | 659 | 3880 | > 10000 | 360 | 811 | 7210 | 1440 | > 10000 | 0.0631 | 0.298 | 0.644 | 0.136 | 0.123 | 0.427 | 0.185 | 0.549 | 2.31 | 2.8 | 4.74 | 2.04 | 2.44 | 3.17 | 2.43 | 4.32 |
